For orientation: IC50 means the midpoint of a concentration-inhibition curve. Lower therefore signals greater potency. Usually Ki stands for a measure of affinity in units of concentration, obtained from inhibition or displacement.

Structures can show the parent of a compound that is named as a salt.

One experiment concerns the target CYP 2D6 (Homo sapiens, UniProt P10635). The experiment is described as follows: CYP inhibition 2D6. The class given is in vitro ADME.
The target in the next experiment is T1, Asp-AT (Sus scrofa, UniProt P00503).
T1 construct: L-aspartate aminotransferase (Asp-AT) from the porcine heart; purchased Sigma-Aldrich G2751-2KU; host or cells: porcine heart
T1 sequence (P00503 2-413 limits assumed): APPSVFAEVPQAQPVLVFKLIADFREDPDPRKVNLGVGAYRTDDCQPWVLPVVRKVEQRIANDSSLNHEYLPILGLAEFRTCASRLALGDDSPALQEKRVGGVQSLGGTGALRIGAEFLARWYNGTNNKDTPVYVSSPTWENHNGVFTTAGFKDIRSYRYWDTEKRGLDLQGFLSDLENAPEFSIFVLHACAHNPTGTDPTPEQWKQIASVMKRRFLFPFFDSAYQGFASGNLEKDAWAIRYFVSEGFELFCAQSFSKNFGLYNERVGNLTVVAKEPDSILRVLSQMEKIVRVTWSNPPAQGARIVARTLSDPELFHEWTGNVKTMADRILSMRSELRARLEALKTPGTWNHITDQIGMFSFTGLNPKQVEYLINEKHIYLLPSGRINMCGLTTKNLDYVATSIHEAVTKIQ
The experiment is described as follows: Inhibition of Asp-AT. Format: biochemical, porcine. The method, then: All reagents for enzyme purification and assays were purchased from Sigma-Aldrich (St. Louis, MO, USA). […] All the enzyme assays for the inactivation, partition ratio, and dialysis experiment were recorded on a Synergy H1 hybrid multimode microplate reader (Biotek, USA) with transparent 96-well plates. […]
(§1) potassium phosphate at pH 7.4, 5.55 mM α-ketoglutarate, 1.11 mM NADH, 5.55 mM […], 5.55 units of malic dehydrogenase, and various concentrations of SS-1-148. […] The plate was shaken at room temperature for 1 min, and the absorbance was measured at 340 nm every 10 s for 90 min based on the conversion of NADH to NAD^+. The remaining Asp-AT activity percentage was calculated according to the corresponding concentrations. […]

In another experiment the target is CYP 3A4 (Homo sapiens, UniProt P08684). The experiment is described as follows: CYP inhibition 3A4. The class given is in vitro ADME.
Sequence of CYP 3A4 (P08684 whole entry): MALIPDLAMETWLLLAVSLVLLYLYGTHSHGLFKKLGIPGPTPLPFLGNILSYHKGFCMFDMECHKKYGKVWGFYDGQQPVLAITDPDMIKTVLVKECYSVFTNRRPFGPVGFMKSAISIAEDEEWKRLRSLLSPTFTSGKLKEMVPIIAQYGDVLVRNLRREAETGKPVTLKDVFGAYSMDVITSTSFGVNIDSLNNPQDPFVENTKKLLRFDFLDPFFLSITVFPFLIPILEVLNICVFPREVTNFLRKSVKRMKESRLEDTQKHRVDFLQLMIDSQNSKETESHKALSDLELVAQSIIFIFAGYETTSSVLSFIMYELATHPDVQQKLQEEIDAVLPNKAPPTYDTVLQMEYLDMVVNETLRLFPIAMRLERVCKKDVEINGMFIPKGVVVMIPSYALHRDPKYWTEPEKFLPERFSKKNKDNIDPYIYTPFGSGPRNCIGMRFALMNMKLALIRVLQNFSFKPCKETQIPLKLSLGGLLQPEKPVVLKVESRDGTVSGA
Another experiment concerns the target hERG (Homo sapiens, UniProt Q12809). The experiment is described as follows: hERG test. Format: in vitro ADME. On the technique in general: Block of hERG is tested as a sign of cardiac risk.
The next experiment has as its target T2, hOAT (Homo sapiens, UniProt P04181).
T2 construct: made in house; host or cells: E. coli BL21(DE3)
T2 sequence (P04181 26-439): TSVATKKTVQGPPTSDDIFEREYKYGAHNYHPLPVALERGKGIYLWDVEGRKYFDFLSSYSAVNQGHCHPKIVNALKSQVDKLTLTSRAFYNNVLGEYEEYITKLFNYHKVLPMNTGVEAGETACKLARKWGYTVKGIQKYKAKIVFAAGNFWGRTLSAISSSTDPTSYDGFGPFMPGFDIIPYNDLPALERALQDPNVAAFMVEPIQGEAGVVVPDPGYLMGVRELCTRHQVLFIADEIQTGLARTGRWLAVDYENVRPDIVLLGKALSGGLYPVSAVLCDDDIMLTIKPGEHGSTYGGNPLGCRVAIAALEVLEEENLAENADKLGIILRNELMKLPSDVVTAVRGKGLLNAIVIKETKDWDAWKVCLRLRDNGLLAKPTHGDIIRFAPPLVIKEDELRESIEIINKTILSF
Description: Transient state (stopped-flow) measurements of hOAT reacting with SS-1-148. The class given is biochemical. Conditions: 10° C., pH 7.5. The method, then: FIG. 6. Transient state absorption changes observed at 275, 420, and 560 nm for hOAT reacting with SS-1-148. OAT (12.7 μM final) was mixed with SS-1-148 (126, 251, 502, 1004, 2008, 4016 μM), and CCD spectra were collected for the timeframe 0.009-49.2 seconds. (A) The data observed at 420 nm fit to a linear combination of three exponential terms according to equation (3) described in the supporting information. The arrow indicates the trend observed in amplitude for increasing inhibitor concentration. (B) The observed rate constant dependence of the first phase observed at 420 nm fit to equation (5) described in the supporting information. The values for k2 and k3 indicated are the average values obtained from the fit in FIG. 5A. The fit is shown in red dashes. (C) The data observed at 560 nm. The curved arrow indicates the trend observed in amplitude for increasing inhibitor concentration. […] The fit is shown in red dashes. (D) The data observed at 275 nm over 2000 sec obtained in the presence of 8032 μM SS-1-148 fit to a linear combination of two exponential terms according to equation (4) in the supporting information. The fit is shown in red dashes.
FIG. 7. Partial deconvolution by singular value decomposition (SVD) of transient state absorption changes observed for hOAT reacting with SS-1-148. hOAT (6.94 μM; final concentration) was reacted in a stopped-flow spectrophotometer with SS-1-148 (1040 μM; final concentration) at 10° C. To obtain time resolution sufficient to analyze kinetic rates spanning four orders of magnitude, a composite CCD absorbance dataset was prepared spanning 250-800 nm and 0.0137-9843 sec by splicing together averaged short and long time-frame datasets. […] The species concentration profile based on the rate constants used to fit the dataset (B). A three-dimensional depiction of a subset of spectra from the dataset analyzed (C).
For each concentration of the inhibitor, CCD spectral datasets were collected in duplicate for 50 sec, and the duplicates were averaged For the highest concentration of inhibitor (8 mM) duplicate CCD datasets were acquired for two timeframes (0.0025-12.4 sec and 0.0025-2480 sec). Duplicate datasets for anyone timeframe were averaged and then spliced together at 12 sec to form one dataset with sufficient time resolution to adequately describe rapid and slow processes. […] In the process, the rate constants were fixed to the values measured using analytical fits to data extracted for single wavelengths that assume successive first-order processes according to the equations (3), (4), and (5). Abs is absorbance, Ax are the amplitudes associated with each observed phase, kx are the corresponding rate constants, and C is the absorbance endpoint.

The next experiment has as its target Ala-AT (Sus scrofa, UniProt P13191). Description: Inhibition of Ala-AT. The class given is biochemical, porcine. The conditions noted are these: up to 10 mM. The method, then:
All reagents for enzyme purification and assays were purchased from Sigma-Aldrich (St. Louis, MO, USA). […] All the enzyme assays for the inactivation, partition ratio, and dialysis experiment were recorded on a Synergy H1 hybrid multimode microplate reader (Biotek, USA) with transparent 96-well plates.
as §1

Sequence of Ala-AT (P13191 whole entry): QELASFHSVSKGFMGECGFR
Sequence of CYP 2D6 (P10635 whole entry): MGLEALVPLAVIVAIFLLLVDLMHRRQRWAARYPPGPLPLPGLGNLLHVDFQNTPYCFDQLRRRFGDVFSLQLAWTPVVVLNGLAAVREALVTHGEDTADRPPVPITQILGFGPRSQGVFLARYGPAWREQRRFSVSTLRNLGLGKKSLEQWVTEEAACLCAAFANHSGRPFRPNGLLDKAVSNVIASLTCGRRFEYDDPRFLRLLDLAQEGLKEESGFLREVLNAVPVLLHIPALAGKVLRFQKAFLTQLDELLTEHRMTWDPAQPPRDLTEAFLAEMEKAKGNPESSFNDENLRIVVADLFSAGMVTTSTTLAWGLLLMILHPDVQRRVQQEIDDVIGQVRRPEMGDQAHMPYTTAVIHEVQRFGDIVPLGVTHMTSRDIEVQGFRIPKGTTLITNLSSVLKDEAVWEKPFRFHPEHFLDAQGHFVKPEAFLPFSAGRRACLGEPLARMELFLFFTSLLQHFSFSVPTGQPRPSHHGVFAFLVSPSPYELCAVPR
Sequence of hERG (Q12809 whole entry): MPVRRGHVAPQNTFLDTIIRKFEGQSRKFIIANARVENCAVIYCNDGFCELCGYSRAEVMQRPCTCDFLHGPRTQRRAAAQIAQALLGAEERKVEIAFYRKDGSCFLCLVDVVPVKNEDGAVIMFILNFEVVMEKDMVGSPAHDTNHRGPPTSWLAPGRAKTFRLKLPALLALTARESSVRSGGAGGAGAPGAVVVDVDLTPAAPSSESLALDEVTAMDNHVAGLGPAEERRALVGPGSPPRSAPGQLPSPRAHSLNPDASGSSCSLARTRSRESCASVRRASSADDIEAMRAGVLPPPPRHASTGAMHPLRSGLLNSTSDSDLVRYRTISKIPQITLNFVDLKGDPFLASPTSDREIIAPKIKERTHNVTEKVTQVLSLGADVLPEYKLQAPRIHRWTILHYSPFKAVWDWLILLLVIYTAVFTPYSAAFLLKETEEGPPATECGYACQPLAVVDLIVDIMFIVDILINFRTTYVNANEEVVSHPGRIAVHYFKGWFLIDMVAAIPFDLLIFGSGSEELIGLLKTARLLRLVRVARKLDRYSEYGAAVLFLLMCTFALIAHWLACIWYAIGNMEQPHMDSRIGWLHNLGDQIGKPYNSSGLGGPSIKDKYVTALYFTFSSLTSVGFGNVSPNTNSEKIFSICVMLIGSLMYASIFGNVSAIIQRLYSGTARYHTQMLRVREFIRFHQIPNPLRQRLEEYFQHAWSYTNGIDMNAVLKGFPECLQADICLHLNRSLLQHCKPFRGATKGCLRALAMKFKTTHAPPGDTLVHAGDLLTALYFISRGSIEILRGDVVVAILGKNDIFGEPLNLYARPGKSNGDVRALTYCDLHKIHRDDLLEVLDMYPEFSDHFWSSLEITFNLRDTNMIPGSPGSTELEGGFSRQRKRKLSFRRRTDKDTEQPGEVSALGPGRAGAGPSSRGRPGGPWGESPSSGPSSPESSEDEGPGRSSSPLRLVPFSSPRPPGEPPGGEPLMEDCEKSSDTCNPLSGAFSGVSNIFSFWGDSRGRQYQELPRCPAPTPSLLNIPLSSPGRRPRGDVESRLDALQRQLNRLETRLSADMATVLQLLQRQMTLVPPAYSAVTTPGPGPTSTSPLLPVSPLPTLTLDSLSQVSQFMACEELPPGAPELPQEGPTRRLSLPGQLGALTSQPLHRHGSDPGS

Take `N[C@H]1C=C(C(=O)O)CC1(F)F` [SS-1-148, (S)-3-Amino-4,4-difluorocyclopent-1-enecarboxylic acid hydrochloric acid salt]: the IC50 on CYP 2D6 was > 100 µM. At Asp-AT (read-out: Off-target effects (Ki, mM) Asp-AT), the Ki is > 20 mM. The “inhibition on Asp-AT” value at Asp-AT (up to 10 mM) is “did not show noticeable inhibition”. Further, the IC50 at CYP 3A4 was > 100 µM. In addition, at hERG, the concentration for half-maximal inhibition (IC50) is > 30 µM. In addition, on hOAT, the “rate constant of final phase (increase at ~275 nm)” value worked out at 0.007 s⁻¹, the “rate dependence of second external aldimine formation (bimolecular reaction)” value was determined as 6200 M⁻¹ s⁻¹, the “rate of accumulation of quinonoid species (~560 nm)” value came out at 0.4 s⁻¹ and the “rate of quinonoid decay” value amounted to 0.09 s⁻¹. The “inhibition on Ala-AT” value on Ala-AT is given as “did not show noticeable inhibition”.
